# Source: US11999737B2, “Kinase inhibitors and related methods of use” (Duke University, priority 2014, dated 2024)
# Tests used:
# intact mouse aorta = experiment: Phenylephrine-induced contractile force of intact mouse aorta (myograph)
# Description: A, Typical myograph force trace showing the effect of HS38 on intact mouse aorta contractility. The maximum contractile force of PE-induced contraction was reduced by approximately 30% when HS38 (10 μM) was added five minutes prior to PE addition and by approximately 40% when added ten minutes after PE addition. B, Serum-starved aortic SM cells were treated with SIP (0.25 μM) and HS-38 (±50 μM) for 30 min.
# Tissue Preparation and Force Measurements. All protocols and procedures for tissue harvest were carried out according to protocols approved by the Animal Care and Use Committees at the University of Virginia and Duke University, Helical strips of mouse aorta or strips of rabbit ileum were dissected, (˜400 μm wide, 2 mm long) and mounted between two tungsten hooks on a bubble plate for force measurements (Horiuti (1988) J. Physiol.-London 398, 131-148). […] Intact strips of mouse abdominal aorta were challenged with phenylephrine following pretreatment with HS38 or diluent, DMSO or HS38 and DMSO were added after maximal phenylephrine-induced force was achieved and force output measured. […] For Ca^2+ activating solutions, EGTA (10 mM) and a calculated amount of Ca-methanesulfonate was added to give the desired free Ca^2+ concentration ((Horiuti (1988) J. Physiol.-London 398, 131-148).
# DYRK2 = target: T1, DYRK2 (Homo sapiens, UniProt Q92630); experiment: 33P-ATP filter-binding kinase assay
# T1 sequence (Q92630 1-601): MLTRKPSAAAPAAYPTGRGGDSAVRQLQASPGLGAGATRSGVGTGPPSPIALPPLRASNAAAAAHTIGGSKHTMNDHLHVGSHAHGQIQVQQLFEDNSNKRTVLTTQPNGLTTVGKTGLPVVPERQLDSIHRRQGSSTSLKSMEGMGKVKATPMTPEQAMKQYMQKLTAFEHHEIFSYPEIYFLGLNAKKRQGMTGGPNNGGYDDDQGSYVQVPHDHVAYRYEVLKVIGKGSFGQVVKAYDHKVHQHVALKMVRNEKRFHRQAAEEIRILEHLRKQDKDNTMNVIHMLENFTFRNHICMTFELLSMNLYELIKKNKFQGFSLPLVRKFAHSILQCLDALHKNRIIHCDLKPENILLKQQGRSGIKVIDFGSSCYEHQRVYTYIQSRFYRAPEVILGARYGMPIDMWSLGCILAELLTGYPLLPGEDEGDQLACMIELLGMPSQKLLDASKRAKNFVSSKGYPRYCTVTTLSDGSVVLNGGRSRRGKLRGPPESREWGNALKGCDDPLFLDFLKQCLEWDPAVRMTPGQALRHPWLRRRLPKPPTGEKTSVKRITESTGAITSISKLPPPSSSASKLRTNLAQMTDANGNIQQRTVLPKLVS
structure (smiles),measurement,setting,value
CC(Sc1nc2c(cnn2-c2cccc(Cl)c2)c(=O)[nH]1)C(N)=O (stereo not shown) [HS38],reduction of maximum contractile force of PE-induced contraction,intact mouse aorta; HS38 10 μM added five minutes prior to PE addition,approximately 30%
same,reduction of maximum contractile force of PE-induced contraction,intact mouse aorta; HS38 10 μM added ten minutes after PE addition,approximately 40%
same,IC50,"DYRK2; mean ± S.D., n = 2",1800 ± 600 nM
same,activity at 10 µM,DYRK2; read-out: % Activity (10 μM HS38),21%
